“And” between values parts separate entries of the source, which are not always exact repeats. Equal values may be shown once.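 Following 48 hours of exposure in 96-well plates, responses at five concentrations were used to interpolate endpoints linearly. GI50 is the concentration that inhibits growth by half. TGI marks complete inhibition of growth.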
Tests used:
Assay in all cases: NCI anticancer screen, dose series, 48 h
HT29 colon = test system: HT29 colon
LOX IMVI melanoma = test system: LOX IMVI melanoma
MALME-3M melanoma = test system: MALME-3M melanoma
MOLT-4 leukemia = test system: MOLT-4 leukemia
NCI-H460 lung = test system: NCI-H460 lung
NCI/ADR-RES ovarian = test system: NCI/ADR-RES ovarian
SK-MEL-5 melanoma = test system: SK-MEL-5 melanoma
NCI-H226 lung = test system: NCI-H226 lung
HL-60(TB) leukemia = test system: HL-60(TB) leukemia

| Structure (SMILES) | TGI (HT29 colon) [µM] | TGI (LOX IMVI melanoma) | TGI (MALME-3M melanoma) | TGI (MOLT-4 leukemia) | TGI (NCI-H460 lung) | TGI (NCI/ADR-RES ovarian) | TGI (SK-MEL-5 melanoma) | TGI (NCI-H226 lung) | TGI (HL-60(TB) leukemia) [µM] | GI50 (HL-60(TB) leukemia) [µM] | GI50 (HT29 colon) | GI50 (LOX IMVI melanoma) | GI50 (MOLT-4 leukemia) [µM] | GI50 (NCI-H226 lung) | GI50 (NCI-H460 lung) [µM] | GI50 (NCI/ADR-RES ovarian) | GI50 (SK-MEL-5 melanoma) [µM] | GI50 (MALME-3M melanoma) [µM] |
| --- | --- | --- | --- | --- | --- | --- | --- | --- | --- | --- | --- | --- | --- | --- | --- | --- | --- | --- |
| CN(CCNC(=S)c1cn(C)c2c1ccc1ccccc12)CCNC(=S)c1cn(C)c2c1ccc1ccccc12 | > 100 | > 100 µM | > 100 µM | > 100 µM | > 100 µM | > 100 µM | > 100 µM |  |  |  |  |  |  |  |  |  |  |  |
| COC(=O)[C@@]1(NC(=O)C(CC(=O)OC(C)(C)C)NC(=O)OC(C)(C)C)C[C@H]1C (some centres not stated) | > 100 | > 100 µM | > 100 µM | > 100 µM | > 100 µM | > 100 µM | > 100 µM | > 100 µM |  |  |  |  |  |  |  |  |  |  |
| NC(=O)c1sc2nc3ccccc3n2c1N | > 100 | > 100 µM | > 100 µM | > 100 µM |  | > 100 µM | > 100 µM | > 100 µM | > 100 |  |  |  |  |  |  |  |  |  |
| O=C(O)CCCc1ccccc1 | > 1000 | 898 µM and > 1000 µM | 121 µM and > 1000 µM | 394 µM and > 1000 µM | 295 µM and > 1000 µM | 343 µM and 47.1 µM | 427 µM and > 1000 µM | 917 µM and > 1000 µM | > 1000 | > 1000 | 221 µM and > 1000 µM | 224 µM and > 1000 µM | > 1000 | 253 µM and > 1000 µM | > 1000 | 83.1 µM and 21.2 µM | > 1000 |  |
| COc1cc(C(=O)O)c(-c2cc3c(cc2C=O)OCO3)c(OC)c1OC | > 10 | > 10 µM | > 10 µM | > 10 µM |  | > 10 µM | > 10 µM |  | > 10 |  |  |  |  |  |  |  |  |  |
| c1n[nH]cc1C12C3C4C5C3C1C5C42 (configuration not stated) | > 100 | > 100 µM | > 100 µM | > 100 µM |  | > 100 µM | > 100 µM | > 100 µM | > 100 |  |  |  |  |  |  |  |  |  |
| COc1ccc(C(=O)Oc2c(C#N)sc3c2c(=O)n(-c2ccccc2)c(=S)n3-c2ccccc2)cc1 | 62 | 46.2 µM |  | 46.5 µM | > 100 µM | 52 µM | 58 µM | 57 µM | 49.7 |  |  |  |  |  |  |  |  |  |
| CCC(C)N1CN(c2ccccc2)C2(CCN(CCCSc3ccc(F)cc3)CC2)C1=O (configuration not stated) | 8.3 | 8.35 µM | 15.8 µM | 13.3 µM |  | 11 µM | 4.62 µM | 17 µM | 17.8 |  |  |  |  |  |  |  |  |  |
| CCN1C[C@]2(C)CC[C@H](OC)C34C5C[C@@H]6[C@@H](OC)C[C@@](OC)(C5[C@H]6OCc5ccccc5)C(C13)[C@H](OC(C)=O)[C@@H]42 (some centres not stated) | > 100 | > 100 µM | > 100 µM | > 100 µM | > 100 µM | > 100 µM | > 100 µM | > 100 µM | > 100 |  |  |  |  |  |  |  |  |  |
| O=[N+]([O-])C(=C/c1cccc2ccccc12)/C(=C\c1cccc2ccccc12)[N+](=O)[O-] | 5.13 | 3.06 µM | 5.49 µM | 8.59 µM | 7.92 µM | 5.79 µM | 6.45 µM | 13.7 µM |  |  |  |  |  |  |  |  |  |  |
| COc1ccc(-n2c(C)nc3ccc(NC4OC(CO)C(O)C(O)C4O)cc3c2=O)cc1 (configuration not stated) | > 100 | > 100 µM | > 100 µM | > 100 µM | > 100 µM | > 100 µM | > 100 µM | > 100 µM | > 100 |  |  |  |  |  |  |  |  |  |
| O=C1/C(=C/c2cccs2)NC(=S)N1CN1CCCCC1 | > 100 | > 100 µM | > 100 µM | > 100 µM |  | > 100 µM | > 100 µM | > 100 µM |  |  |  |  |  |  |  |  |  |  |
| CC1CC(N2CCOCC2)=Nc2ccccc2N1Cc1ccccc1 (configuration not stated) | > 100 | > 100 µM | 63.1 µM |  | > 100 µM | > 100 µM | > 100 µM | > 100 µM | > 100 |  |  |  |  |  |  |  |  |  |
| CCOC(=O)/C=C\C(C#N)(C#N)N=Cc1ccsc1 | 28.1 | 15.1 µM | 5.35 µM | 5.61 µM | 43.7 µM | 15.3 µM | 35.4 µM | 34.2 µM | 5.14 |  |  |  |  |  |  |  |  |  |
| O=C(Nc1ccc2[nH]c(C(=O)N3CC(CCl)c4ccc([N+](=O)[O-])cc43)cc2c1)c1cc2ccccc2o1 (configuration not stated) | > 1100 | > 1100 µM | > 1100 µM | > 1100 µM | > 1100 µM | > 1100 µM | > 1100 µM | > 1100 µM | > 1100 |  |  |  |  |  |  |  |  |  |
| Cc1cccc(CNc2ncnc3[nH]ncc23)c1 | > 100 | > 100 µM | > 100 µM | > 100 µM | > 100 µM | > 100 µM | > 100 µM | > 100 µM | > 100 |  |  |  |  |  |  |  |  |  |
| CC1SC(c2ccc(Cl)cc2)N(CCc2cccs2)C1=O (configuration not stated) | 3.14 | 2.49 µM | 4.05 µM | 9.11 µM | 3.26 µM | 3.2 µM | 2.75 µM | 3.26 µM | 8.73 | 2.58 | 1.48 µM | 1.23 µM | 2.46 | 1.5 µM | 1.56 | 1.39 µM | 1.43 | 2.12 |
| O=c1n(-c2ccccc2)c(=O)n2c(-c3ccccc3)c(-c3ccccc3)n12 | > 100 | > 100 µM | > 100 µM | > 100 µM | > 100 µM | > 100 µM | > 100 µM | > 100 µM | > 100 |  |  |  |  |  |  |  |  |  |
| C=C(CCC=C(C)C)C1CC=C(C)CC1 (configuration not stated) |  | 21.9 µM | > 100 µM |  | 40.1 µM | > 100 µM | 31 µM | > 100 µM |  |  |  |  |  |  |  |  |  |  |
| FC(F)(F)c1cccnc1Sc1nc2ccccc2s1 | > 100 |  | > 100 µM | > 100 µM | > 100 µM | > 100 µM | > 100 µM | > 100 µM |  |  |  |  |  |  |  |  |  |  |
| CNC(=O)N1N[C@H](c2ccccc2)[C@@H]1c1ccccc1 | 32.3 | 44.3 µM | 72.6 µM | 71.1 µM | 53.4 µM | 36.6 µM | 32.8 µM | 32.8 µM | > 100 |  |  |  |  |  |  |  |  |  |
| C[C@@]1(OC(=O)c2cc([N+](=O)[O-])cc([N+](=O)[O-])c2)C[C@@H]2CCCC[C@@H]21 | > 100 | > 100 µM | > 100 µM | > 100 µM | > 100 µM | > 100 µM | > 100 µM | > 100 µM | > 100 |  |  |  |  |  |  |  |  |  |

Reference: PubChem BioAssay (NCI)
